From patent US12152034B2, “FGFR inhibitors and methods of making and using the same” (Relay Therapeutics, Inc., priority 2020, dated 2024)
Where “and” joins values, the source holds several entries; their conditions need not be identical. Equal values may be shown once. Entries after “also recorded” stand apart in the source; their conditions may differ. Read-outs that look alike come from different tables or passages of the source. Each block holds one compound with its values, some of them ahead of it.

Key:
Format in all cases: physicochemical
[1] = Storage at 40° C./75% RH for 7 days (one week), form checked by XRPD; settings: for Storage at 40° C./75% RH for one week (row head not given): Compound IV salts; for Storage at 40° C./75% RH for one week (row head not given) / Storage at 40° C./75% RH for 7 days: form by XRPD; for XRPD after storage at 40° C./75% RH for 7 days: one week (7 days); for Storage at 40° C./75% RH for 7 days: Compound III salts
Protocol: The suspensions were then cooled down to 5° C. at 0.1° C./min and were held at this temperature for 16 hrs. Stirring (500 rpm) was maintained throughout. Any gums that formed were maturated between 25 and 50° C. (4 hours at each temperature for 24 hrs). The suspensions were isolated by filtration under suction and air dried then analysed by XRPD. Any new patterns identified by XRPD were analysed further by NMR, TGA, DSC and stability at 40 C/75% RH for 1 week.

[2] = Solubility measurements in SGF, FeSSIF and FaSSIF with XRPD of residual solids; settings: for solubility in all media (in words): FeSSIF and FaSSIF; for solubility in FeSSIF (in words): simulated fed state intestinal fluid; for Average Solubility / XRPD of residual solid / pH at 24 hrs / Solubility: Compound III-1, HCl and sulfate salts; for Solubility: single replicate
Source text: The results from the solubility measurements in simulated gastric fluid (SGF), simulated fed state conditions in the small intestines (FeSSIF), and simulated fasting state conditions in the small intestines fluid (FaSSIF) are summarised in Table 12. The salts show reduced solubility in SGF compared to the free form.
Crystalline FB Form A, HCl Form A, and the sufate salt Form A were scaled up for solubility analysis.
HCl Form A was successfully scaled up for solubility analysis.

[3] = Solubility assessment in solvents by aliquot addition (5-40 vol, 25° C., then heating)
Protocol: Compound II-1 (40 mg) was treated with an aliquot of solvent (200 μl for 5 vol, 400 μl for 10 vol, 800 μl for 20 vol) and left to stir at 25° C. for 15 minutes. After 15 minutes, suspensions were treated with another aliquot of solvent and left to stir for the same duration again. Any solutions were removed from stirring and further solvent additions. This procedure was repeated up to 40 vol.
At 40 vol, any remaining suspensions were heated to 40° C. at a rate of 10° C./min. Samples that remained as suspensions at 40° C. were moved to the maturation chamber (RT/50° C.) for 4 days. All solutions from solvent additions were heated to 50° C. before cooling to 5° C. at a rate of 0.1° C./min, then held at 5° C. overnight. […]

[4] = simulated fasting state intestinal fluid

Compound: C#Cc1cc(C)c(-c2c(-c3ccc(Oc4nccc(C)n4)c(F)c3)c3c(C)ncnc3n2C)c(C)n1.O=S(=O)(O)c1ccccc1 [BSA Form A]
Storage at 40° C./75% RH for one week (row head not given) [1]: Change in form -

Compound: C=C(C)C(=O)Nc1ccc(-c2c(C3=CC[C@H](C(=O)N4CCCC4)CC3)c3c(N)ncnc3n2C)c(C)c1.Cl [Compound II-2]
XRPD after storage at 40° C./75% RH for 7 days [1]: no change

Compound: Br.C=C(C)C(=O)Nc1ccc(-c2c(C3=CC[C@H](C(=O)N4CCCC4)CC3)c3c(N)ncnc3n2C)c(C)c1 [Compound II-3]
XRPD after storage at 40° C./75% RH for 7 days [1]: convert to an amorphous form

Compound: C=C(C)C(=O)Nc1ccc(-c2c(C3=CC[C@H](C(=O)N4CCCC4)CC3)c3c(N)ncnc3n2C)c(C)c1.Cc1ccc(S(=O)(=O)O)cc1 [Compound II-4]
XRPD after storage at 40° C./75% RH for 7 days ([1]; listed as Compound II pTSA Form A): XRPD unchanged
XRPD after storage at 40° C./75% RH for 7 days ([1]; listed as Compound II pTSA Form B): conversion to pTSA Form A; also recorded: Converted to pTSA
XRPD after storage at 40° C./75% RH for 7 days ([1]; listed as Compound II pTSA Form C): conversion to pTSA Form A; also recorded: Converted to pTSA
XRPD after storage at 40° C./75% RH for 7 days ([1]; listed as Compound II-1 tosylate salt): no change
solubility in FaSSIF (in words) [2]: highest solubility

Compound: C=C(C)C(=O)Nc1ccc(-c2c(C3=CC[C@H](C(=O)N4CCCC4)CC3)c3c(N)ncnc3n2C)c(C)c1.O=S(=O)(O)c1ccccc1 [Compound II-6]
XRPD after storage at 40° C./75% RH for 7 days [1]: no change
solubility in all media (in words) ([2]; SGF): low solubility

Compound: C=C(C)C(=O)Nc1ccc(-c2c(C3=CC[C@H](C(=O)N4CCCC4)CC3)c3c(N)ncnc3n2C)c(C)c1.O=C(O)/C=C/C(=O)O [Compound II-7]
XRPD after storage at 40° C./75% RH for 7 days [1]: no change

XRPD after storage at 40° C./75% RH for 7 days ([1]; listed as Compound III HCl Form A): converting to HCl Form B
XRPD after storage at 40° C./75% RH for 7 days ([1]; listed as Compound III HCl Form B): large reduction in crystallinity
XRPD after storage at 40° C./75% RH for 7 days ([1]; listed as Compound III HCl Form D): no change in form
XRPD after storage at 40° C./75% RH for 7 days ([1]; listed as Compound III HCl Patterns 3 and 5): no change in form
XRPD after storage at 40° C./75% RH for 7 days ([1]; listed as Compound III-1 chloride salt): change form
XRPD of residual solids after solubility measurement ([2]; FaSSIF): new form
solubility in FeSSIF (in words) [2]: lower solubility than the free form
Compound: C#Cc1cc(OC)c(-c2c(-c3ccc(Oc4nccc(C)n4)c(F)c3)c3c(C)ncnc3n2C)cn1.Cl [Compound III-2]

XRPD after storage at 40° C./75% RH for 7 days [1]: change form
Compound: Br.C#Cc1cc(OC)c(-c2c(-c3ccc(Oc4nccc(C)n4)c(F)c3)c3c(C)ncnc3n2C)cn1 [Compound III-3]

XRPD after storage at 40° C./75% RH for 7 days ([1]; listed as Compound III-1 sulfate salt): small changes in the XRPD diffractogram
XRPD of residual solids after solubility measurement ([2]; FaSSIF): too poorly crystalline to assign
Compound: C#Cc1cc(OC)c(-c2c(-c3ccc(Oc4nccc(C)n4)c(F)c3)c3c(C)ncnc3n2C)cn1.O=S(=O)(O)O [Compound III-4]
solubility in FaSSIF (in words) [2, 4]: slightly more soluble than the chloride salt
solubility in FeSSIF (in words) [2]: slightly more soluble than the chloride salt

XRPD after storage at 40° C./75% RH for 7 days [1]: lose crystallinity
Compound: C#Cc1cc(OC)c(-c2c(-c3ccc(Oc4nccc(C)n4)c(F)c3)c3c(C)ncnc3n2C)cn1.CS(=O)(=O)O [Compound III-5]

XRPD after storage at 40° C./75% RH for 7 days [1]: No change in form
Compound: C#Cc1cc(OC)c(-c2c(-c3ccc(Oc4nccc(C)n4)c(F)c3)c3c(C)ncnc3n2C)cn1.O=C(O)C(O)C(O)C(=O)O [Compound III-6]

Compound: C#Cc1cc(C)c(-c2c(-c3ccc(Oc4nccc(C)n4)c(F)c3)c3c(C)ncnc3n2C)c(C)n1 [Compound IV-1, 6-(6-ethynyl-2,4-dimethylpyridin-3-yl)-5-(3-fluoro-4-((4-methylpyrimidin-2-yl)oxy)phenyl)-4,7-dimethyl-7H-pyrrolo[2,3-d]pyrimidine]
Observation after treatment ([3]; 2-Propanol, after cooling from 50° C. to 5° C.): Clear solution
Observation after treatment ([3]; 10% Water/IPA, after cooling from 50° C. to 5° C.): Clear solution
Observation after treatment ([3]; 10% Water/MeCN, after cooling from 50° C. to 5° C.): Clear solution
solubility in the solvents tested (in words) ([3]; 13 solvents, up to 40 vol): soluble in all but three of the solvents tested
Observation after treatment ([3]; Acetone, after cooling from 50° C. to 5° C.): Clear solution
Observation after treatment ([3]; Ethanol, after cooling from 50° C. to 5° C.): Clear solution
Observation after treatment ([3]; Ethyl acetate, after cooling from 50° C. to 5° C.): Clear solution
Observation after treatment ([3]; Isopropyl acetate, after cooling from 50° C. to 5° C.): Clear solution
Observation after treatment ([3]; MEK, after cooling from 50° C. to 5° C.): Clear solution
Observation after treatment ([3]; Methanol, after cooling from 50° C. to 5° C.): Clear solution
Observation after treatment ([3]; TBME, 40 vol, after maturation (RT/50° C.) 4 days): Suspension
Observation after treatment ([3]; THF, after cooling from 50° C. to 5° C.): Clear solution
Observation after treatment ([3]; Water, 40 vol, after maturation (RT/50° C.) 4 days): Suspension
Observation after treatment ([3]; n-Heptane, 40 vol, after maturation (RT/50° C.) 4 days): Suspension
XRPD of residual solids after solubility measurement ([2]; all media (SGF, FeSSIF, FaSSIF)): remained unchanged
solubility in FaSSIF (in words) [2, 4]: lowest solubility

Compound: C#Cc1cc(C)c(-c2c(-c3ccc(Oc4nccc(C)n4)c(F)c3)c3c(C)ncnc3n2C)c(C)n1.Cl [Compound IV-2]
XRPD after storage at 40° C./75% RH for 7 days [1]: no change to form
XRPD of residual solids after solubility measurement ([2]; FaSSIF): converted to free form Form A
XRPD of residual solids after solubility measurement ([2]; FeSSIF): converted to free form Form A
solubility in all media (in words) ([2]; SGF): more soluble than the tosylate salt
solubility in SGF (in words) ([2]; simulated gastric fluid): completely dissolved

Compound: C#Cc1cc(C)c(-c2c(-c3ccc(Oc4nccc(C)n4)c(F)c3)c3c(C)ncnc3n2C)c(C)n1.Cc1ccc(S(=O)(=O)O)cc1 [Compound IV-3]
XRPD after storage at 40° C./75% RH for 7 days ([1]; listed as Compound IV pTSA Form A): pTSA Form B
XRPD after storage at 40° C./75% RH for 7 days ([1]; listed as Compound IV-1 tosylate salt): change form
XRPD of residual solids after solubility measurement ([2]; FaSSIF): remained unchanged
XRPD of residual solids after solubility measurement ([2]; FeSSIF): too poorly crystalline to assign
XRPD of residual solids after solubility measurement ([2]; SGF): remained unchanged

Compound: C#Cc1cc(C)c(-c2c(-c3ccc(Oc4nccc(C)n4)c(F)c3)c3c(C)ncnc3n2C)c(C)n1.CS(=O)(=O)O [Compound IV-4]
XRPD after storage at 40° C./75% RH for 7 days [1]: lose crystallinity

Compound: C#Cc1cc(C)c(-c2c(-c3ccc(Oc4nccc(C)n4)c(F)c3)c3c(C)ncnc3n2C)c(C)n1.O=S(=O)(O)c1ccccc1 [Compound IV-5]
XRPD after storage at 40° C./75% RH for 7 days [1]: change form

Storage at 40° C./75% RH for 7 days [1]: Change in form -
Compound: Br.C#Cc1cc(OC)c(-c2c(-c3ccc(Oc4nccc(C)n4)c(F)c3)c3c(C)ncnc3n2C)cn1 [HBr Form A]

Compound: C#Cc1cc(C)c(-c2c(-c3ccc(Oc4nccc(C)n4)c(F)c3)c3c(C)ncnc3n2C)c(C)n1.Cl [HC1 Form A]
Storage at 40° C./75% RH for one week (row head not given) [1]: Reduced crystallinity -

Average Solubility ([2]; FaSSIF): 1950 µg/mL
XRPD of residual solid ([2]; FaSSIF): Poorly crystalline
pH at 24 hrs ([2]; FaSSIF): 2.6 and 2.7
Solubility ([2]; FaSSIF): 2000 µg/mL and 1900 µg/mL
Average Solubility ([2]; FeSSIF): 230 µg/mL
XRPD of residual solid ([2]; FeSSIF): FB Form C
pH at 24 hrs ([2]; FeSSIF): 4.4
Solubility ([2]; FeSSIF): 240 µg/mL and 220 µg/mL
Average Solubility ([2]; SGF): >10500 µg/mL
pH at 24 hrs ([2]; SGF): 1.7
Solubility ([2]; SGF): >10200 µg/mL and >10700 µg/mL
Compound: C#Cc1cc(OC)c(-c2c(-c3ccc(Oc4nccc(C)n4)c(F)c3)c3c(C)ncnc3n2C)cn1.O=S(=O)(O)O [SO4 Form A]

Storage at 40° C./75% RH for 7 days [1]: No change
Compound: C#Cc1cc(OC)c(-c2c(-c3ccc(Oc4nccc(C)n4)c(F)c3)c3c(C)ncnc3n2C)cn1.O=C(O)C(O)C(O)C(=O)O [TAR Form A]

Compound: C#Cc1cc(C)c(-c2c(-c3ccc(Oc4nccc(C)n4)c(F)c3)c3c(C)ncnc3n2C)c(C)n1.Cc1ccc(S(=O)(=O)O)cc1 [pTSA Form A]
Storage at 40° C./75% RH for one week (row head not given) [1]: Change in form -
